Laboratory results: PubChem BioAssay AID248 (DTP/NCI, 2004)
Inconclusive results and toxic doses are left out. Cut-off read from the data, not from the text of the source: active = T/C of 150% or more; inactive = T/C below 125%.

System: L1210 leukemia ip in BDF1 mice, survival T/C
Assay: NCI In Vivo Anticancer Drug Screen. Data for tumor model L1210 Leukemia (intraperitoneal) in B6D2F1 (BDF1) mice
Details: endpoint: mean survival time, higher = longer survival
Outline: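 Antitumor effect is assessed in tumor-bearing animals. Survival in the compound arm is compared with a vehicle-dosed control arm and expressed as their quotient.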

[1] = dose: 100.0 mg/kg/injection, schedule: Q01DX009 (ip), vehicle: saline with Tween-80
[2] = dose: 200.0 mg/kg/injection, schedule: Q01DX009 (ip), vehicle: saline with Tween-80
[3] = dose: 400.0 mg/kg/injection, schedule: Q01DX009 (ip), vehicle: saline with Tween-80
[4] = dose: 100.0 mg/kg/injection, schedule: Q01DX001 (ip), vehicle: carboxymethylcellulose (CMC)
[5] = dose: 200.0 mg/kg/injection, schedule: Q01DX001 (ip), vehicle: carboxymethylcellulose (CMC)
[6] = dose: 400.0 mg/kg/injection, schedule: Q01DX001 (ip), vehicle: carboxymethylcellulose (CMC)
[7] = dose: 100.0 mg/kg/injection, schedule: Q01DX001 (ip), vehicle: saline
[8] = dose: 100.0 mg/kg/injection, schedule: Q04DX003 (ip), vehicle: other
[9] = dose: 200.0 mg/kg/injection, schedule: Q01DX001 (ip), vehicle: saline
[10] = dose: 200.0 mg/kg/injection, schedule: Q04DX003 (ip), vehicle: other
[11] = dose: 400.0 mg/kg/injection, schedule: Q01DX001 (ip), vehicle: saline
[12] = dose: 400.0 mg/kg/injection, schedule: Q04DX003 (ip), vehicle: other
[13] = dose: 100.0 mg/kg/injection, schedule: Q01DX001 (ip), vehicle: Klucel (hydroxypropylcellulose) (HPC)
[14] = dose: 100.0 mg/kg/injection, schedule: Q01DX009 (ip), vehicle: Klucel (hydroxypropylcellulose) (HPC)
[15] = dose: 200.0 mg/kg/injection, schedule: Q01DX009 (ip), vehicle: Klucel (hydroxypropylcellulose) (HPC)
[16] = dose: 50.0 mg/kg/injection, schedule: Q01DX001 (ip), vehicle: saline

Measured: T/C

O=C1c2ccccc2C(=O)c2cc3nc4c5ccccc5c5ccccc5c4nc3cc21
inactive: [1] 93 % of control | dose: 100.0 mg/kg/injection, schedule: Q04DX002 (ip), vehicle: saline with Tween-80 103 % of control | [2] 90 % of control | dose: 200.0 mg/kg/injection, schedule: Q04DX002 (ip), vehicle: saline with Tween-80 97 % of control | [3] 97 % of control | dose: 400.0 mg/kg/injection, schedule: Q04DX002 (ip), vehicle: saline with Tween-80 100 % of control

CCC(/C=C1\Oc2ccc(-c3ccccc3)cc2N1CC)=C\c1oc2ccc(-c3ccccc3)cc2[n+]1CC
inactive: dose: 0.1 mg/kg/injection, schedule: Q01DX009 (ip), vehicle: other 102 % of control | dose: 0.3 mg/kg/injection, schedule: Q01DX009 (ip), vehicle: other 110 % of control | dose: 0.6 mg/kg/injection, schedule: Q01DX009 (ip), vehicle: other 116 % of control | dose: 0.62 mg/kg/injection, schedule: Q01DX009 (ip), vehicle: saline 111 % of control | dose: 1.2 mg/kg/injection, schedule: Q01DX009 (ip), vehicle: other 116 % of control | dose: 1.25 mg/kg/injection, schedule: Q01DX009 (ip), vehicle: saline 108 % of control | dose: 2.5 mg/kg/injection, schedule: Q01DX009 (ip), vehicle: saline 114 % of control | dose: 2.6 mg/kg/injection, schedule: Q01DX009 (ip), vehicle: other 122 % of control | dose: 5.0 mg/kg/injection, schedule: Q01DX009 (ip), vehicle: saline 103 % of control | dose: 19.0 mg/kg/injection, schedule: Q01DX001 (ip), vehicle: other 109 % of control

O=C1c2ccccc2-c2c(Br)c3ccccc3c(=O)n21
inactive: dose: 50.0 mg/kg/injection, schedule: Q01DX001 (ip), vehicle: carboxymethylcellulose (CMC) 91 % of control | [4] 89 % of control | [5] 91 % of control | [6] 94 % of control

O=C(CCNC(=O)c1ccccc1)Oc1ccccc1
inactive: dose: 100.0 mg/kg/injection, schedule: Q04DX003 (ip), vehicle: saline 93 % of control | dose: 200.0 mg/kg/injection, schedule: Q04DX003 (ip), vehicle: saline 95 % of control | dose: 400.0 mg/kg/injection, schedule: Q04DX003 (ip), vehicle: saline 92 % of control

CCOC(=O)/C(C#N)=C\c1cccc2ccccc12
inactive: [7] 98 % of control | [8] 92 % of control | [9] 103 % of control | [10] 92 % of control | [11] 100 % of control | [12] 93 % of control

Cc1nc(N)c(N)nc1C
inactive: dose: 12.5 mg/kg/injection, schedule: Q01DX009 (ip), vehicle: saline with Tween-80 112 % of control | dose: 25.0 mg/kg/injection, schedule: Q01DX009 (ip), vehicle: saline with Tween-80 101 % of control | dose: 25.0 mg/kg/injection, schedule: Q04DX003 (ip), vehicle: saline with Tween-80 106 % of control | dose: 50.0 mg/kg/injection, schedule: Q01DX009 (ip), vehicle: saline with Tween-80 101 % of control | dose: 50.0 mg/kg/injection, schedule: Q04DX003 (ip), vehicle: saline with Tween-80 101 % of control

CCCCOc1c(OC)cc(OC)cc1C(=O)O
inactive: [4] 102 % of control | [5] 91 % of control | [6] 86 % of control

Cc1c(N)nc(N)nc1C(=O)O
inactive: dose: 25.0 mg/kg/injection, schedule: Q01DX001 (ip), vehicle: Klucel (hydroxypropylcellulose) (HPC) 108 % of control | dose: 50.0 mg/kg/injection, schedule: Q01DX001 (ip), vehicle: Klucel (hydroxypropylcellulose) (HPC) 93 % of control | [13] 105 % of control

CCCCNC(=O)Nc1ccc(C(=O)OCC)cc1
inactive: [14] 98 % of control | dose: 100.0 mg/kg/injection, schedule: Q04DX003 (ip), vehicle: Klucel (hydroxypropylcellulose) (HPC) 95 % of control | [15] 98 % of control | dose: 200.0 mg/kg/injection, schedule: Q04DX003 (ip), vehicle: Klucel (hydroxypropylcellulose) (HPC) 96 % of control | dose: 400.0 mg/kg/injection, schedule: Q01DX009 (ip), vehicle: Klucel (hydroxypropylcellulose) (HPC) 88 % of control | dose: 400.0 mg/kg/injection, schedule: Q04DX003 (ip), vehicle: Klucel (hydroxypropylcellulose) (HPC) 94 % of control

O=C(Cc1ccccc1)ONC(CCCCNC(=O)OCc1ccccc1)C(=O)Nc1ccc(Cc2ccc(NC(=O)C(CCCCNC(=O)OCc3ccccc3)NC(=O)OCc3ccccc3)cc2)cc1 (stereo unspecified)
inactive: [16] 95 % of control | [7] 95 % of control | [9] 95 % of control | [11] 95 % of control

CCOC(=O)/C(O)=C/c1cnc2ccccc2n1
inactive: dose: 50.0 mg/kg/injection, schedule: Q01DX009 (ip), vehicle: Klucel (hydroxypropylcellulose) (HPC) 94 % of control | [14] 91 % of control | [15] 94 % of control

C=CCNc1nc(C)ncc1C(=O)OCC
inactive: dose: 75.0 mg/kg/injection, schedule: Q04DX003 (ip), vehicle: saline with Tween-80 94 % of control | dose: 150.0 mg/kg/injection, schedule: Q04DX003 (ip), vehicle: saline with Tween-80 92 % of control | dose: 300.0 mg/kg/injection, schedule: Q04DX003 (ip), vehicle: saline with Tween-80 92 % of control

O=S(=O)(C/C=C/COc1ccccc1)c1ccc2ccccc2c1
inactive: dose: 75.0 mg/kg/injection, schedule: Q01DX001 (ip), vehicle: Klucel (hydroxypropylcellulose) (HPC) 104 % of control | dose: 75.0 mg/kg/injection, schedule: Q01DX009 (ip), vehicle: Klucel (hydroxypropylcellulose) (HPC) 102 % of control | dose: 150.0 mg/kg/injection, schedule: Q01DX001 (ip), vehicle: Klucel (hydroxypropylcellulose) (HPC) 94 % of control | dose: 150.0 mg/kg/injection, schedule: Q01DX009 (ip), vehicle: Klucel (hydroxypropylcellulose) (HPC) 96 % of control | dose: 300.0 mg/kg/injection, schedule: Q01DX001 (ip), vehicle: Klucel (hydroxypropylcellulose) (HPC) 113 % of control | dose: 300.0 mg/kg/injection, schedule: Q01DX009 (ip), vehicle: Klucel (hydroxypropylcellulose) (HPC) 98 % of control

O=C(C#CC(=O)[O][Sn]([c]1ccccc1)([c]1ccccc1)[c]1ccccc1)[O][Sn]([c]1ccccc1)([c]1ccccc1)[c]1ccccc1
inactive: dose: 6.25 mg/kg/injection, schedule: Q01DX001 (ip), vehicle: saline 90 % of control | dose: 12.5 mg/kg/injection, schedule: Q01DX001 (ip), vehicle: saline 95 % of control | dose: 25.0 mg/kg/injection, schedule: Q01DX001 (ip), vehicle: saline 100 % of control | dose: 35.0 mg/kg/injection, schedule: Q01DX001 (ip), vehicle: Klucel (hydroxypropylcellulose) (HPC) 91 % of control

O=C(OC12CCN(CC1)CC2)c1ccccc1
inactive: dose: 9.5 mg/kg/injection, schedule: Q01DX001 (ip), vehicle: saline 95 % of control | dose: 19.0 mg/kg/injection, schedule: Q01DX001 (ip), vehicle: saline 95 % of control

CCCC(CCC)NCCOC(=O)C(CC)c1ccccc1 (stereo unspecified)
inactive: dose: 75.0 mg/kg/injection, schedule: Q01DX001 (ip), vehicle: saline 94 % of control

CN(C(=O)CCC(=O)O)c1cc([N+](=O)[O-])ccc1OCc1ccccc1
inactive: [16] 108 % of control | [7] 100 % of control | [9] 105 % of control | [11] 109 % of control

CC(=O)N1CCN(C(C)=O)C1=S
inactive: [13] 96 % of control | dose: 200.0 mg/kg/injection, schedule: Q01DX001 (ip), vehicle: Klucel (hydroxypropylcellulose) (HPC) 95 % of control | dose: 400.0 mg/kg/injection, schedule: Q01DX001 (ip), vehicle: Klucel (hydroxypropylcellulose) (HPC) 98 % of control

O=c1[nH]cnc2c(Cl)c(C(Cl)(Cl)Cl)nn12 (tested in a mixture with another compound)
inactive: [1] 97 % of control | dose: 100.0 mg/kg/injection, schedule: Q04DX003 (ip), vehicle: saline with Tween-80 104 % of control | [2] 92 % of control | dose: 200.0 mg/kg/injection, schedule: Q04DX003 (ip), vehicle: saline with Tween-80 98 % of control | [3] 97 % of control | dose: 400.0 mg/kg/injection, schedule: Q04DX003 (ip), vehicle: saline with Tween-80 97 % of control

C[n+]1ccc(N2CCCCC2)c2ccc(Cl)cc21
inactive: dose: 2.0 mg/kg/injection, schedule: Q01DX001 (ip), vehicle: saline 111 % of control

CCC12CC(Br)C(C1)OC2=O (stereo unspecified)
inactive: [8] 100 % of control | [10] 95 % of control | [12] 94 % of control
